Where “and” joins values, the source holds several entries; their conditions need not be identical. Identical values can stand only once.
What follows are molecules tested on circulating interferon (assay: not given). Conditions: mouse, in vivo, ip.
Parameters: species or system female Swiss mice

CCCCCCCCCCCCCCCCN(CCCCCCCCCCCCCCCC)Cc1cccc(C(=N)Nc2ccc(O)c(C)c2)c1 [Example 30] was tested, and the “Plasma Interferon Levels” value was 66 units/ml. and 87 units/ml. and 61 units/ml. and 64 units/ml.

The molecules below were run on encephalomyocarditis (EMC) virus (assay: Antiviral activity in mice challenged with lethal dose of encephalomyocarditis (EMC) virus (survival, relative survival, ED50)). Conditions: Mus musculus, ip, 240 h; as mg. dihydrochloride salt; i.p. 18-24 h before EMC virus challenge; day 10; read-out: ED50.
Format: in vivo, female albino mice
Procedure: The antiviral activity of the compounds of formula I is determined by the following procedure. The test compound is administered to mice by the intraperitoneal route eighteen to twenty-four hours prior to challenging them with a lethal dose of encephalomyocarditis (EMC) virus. The survival rate is determined ten days after challenge and an ED50 [dosage level (mg of compound/kg body weight) required to obtain a fifty percent survival rate] calculated. The procedure in which the drug is given eighteen to twenty-four hours before, and at a distinctly different site from, virus injection is designed to eliminate local effects between drug and virus and identify only those compounds which produce a systemic antiviral response.
Three groups of ten female albino mice (20-25 g. body weight) were given single 0.5 ml. intraperitoneal injections containing dosage levels of 1.5, 5, and 15 mg. of the named compound/kg. body weight, respectively. A fourth control group was given no such injection. Eighteen to twenty-four hours later all four groups were challenged with a 0.2 ml. subcutaneous injection containing 20-30 times the LD50, the dosage level causing a 50% death rate in ten days, of encephalomyocarditis (EMC) virus. The following survival data were recorded for the following ten days:
Antiviral activity is expressed as the relative survival (Sr) in experimental groups compared to the controls on the tenth day after challenge. Sr is defined by the formula [formula] wherein Sr = relative survival […]
Sx = percent survival after ten days in experimental group xi = number of survivors on the ith day in experimental group ei = number of survivors on the ith day in control group
The ED50 [dosage level (mg. of compound/kg. body weight) required to obtain a fifty percent survival rate] is determined graphically by plotting Sr (ordinate) vs. 1n dosage level (abscissa) and then fitting the points with a line of predetermined slope by least squares. The dosage level at which this fitted line has an ordinate of 50 is equivalent to the ED50.
In like manner to that described in Example 113 the antiviral activity was determined for the compounds listed below.

CCCCCCCCCCCCCCCCN(CCCCCCCCCCCCCCCC)Cc1cccc(C(=N)N)c1 [Example 2, m-[N,N-Di-(n-hexadecyl)aminomethyl]-benzamidine] and CCCCCCCCCCCCCCCCN(CCCCCCCCCCCCCCCC)Cc1cccc(C(=N)NC)c1 [Example 27, m-[N,N-di(n-hexadecyl)aminomethyl]-N-methyl-benzamidine] are within 1.5-fold of each other in ED50: 4.7 mg/kg for the first, 5.7 mg/kg for the second.

Compared with CCCCCCCCCCCCCCCCN(CCCCCCCCCCCCCCCC)Cc1cccc(C(=N)Nc2ncccn2)c1 [Example 17], CCCCCCCCCCCCCCCCN(CCCCCCCCCCCCCCCC)Cc1cccc(C(=N)Nc2ccccn2)c1 [Example 10] is 3.8-fold higher in ED50: 12.9 mg/kg for the first, 49.3 mg/kg for the second.

First: CCCCCCCCCCCCCCCCN(CCCCCCCCCCCCCCCC)Cc1cccc(C(=N)Nc2ccc(OC)cc2)c1 [Example 6, m-[N,N-Di(n-hexadecyl)aminomethyl]-N-(p-methoxyphenyl)-benzamidine]
Second: CCCCCCCCCCCCCCCCN(CCCCCCCCCCCCCCCC)Cc1cccc(C(=N)Nc2ccc(OCC)cc2)c1 [Example 18]
The ED50 of the first is 3.4-fold lower: 5.3 mg/kg for the first, 17.9 mg/kg for the second.

Going from CCCCCCCCCCCCCCCCN(CCCCCCCCCCCCCCCC)Cc1cccc(C(=N)NC(C)C)c1 [Example 25, m-[N,N-di(n-hexadecyl)aminomethyl]-N-(2-propyl)-benzamidine] to CCCCCCCCCCCCCCCCN(CCCCCCCCCCCCCCCC)Cc1cccc(C(=N)NN(C)C)c1 [Example 23, m-[N,N-di(n-hexadecyl)aminomethyl]-N-dimethylamino-benzamidine], the ED50 rises from 2.8 mg/kg to 5 mg/kg (1.8-fold).

Compared with CCCCCCCCCCCCCCCCN(CCCCCCCCCCCCCCCC)Cc1cccc(C(=N)Nc2ccc(O)cc2)c1 [Example 12], CCCCCCCCCCCCCCCCN(CCCCCCCCCCCCCCCC)Cc1cccc(C(=N)Nc2ccc(C)cc2)c1 [Example 9] is 1.6-fold higher in ED50: 4.9 mg/kg for the first, 7.7 mg/kg for the second.

CCCCCCCCCCCCCCCCN(CCCCCCCCCCCCCCCC)Cc1cccc(C(=N)Nc2ccc(O)cc2O)c1 [Example 33] and CCCCCCCCCCCCCCCCN(CCCCCCCCCCCCCCCC)Cc1cccc(C(=N)Nc2ccc(Cl)cc2Cl)c1 [Example 11] are within 1.5-fold of each other in ED50: 37.2 mg/kg for the first, 35.7 mg/kg for the second.

Going from CCCCCCCCCCCCCCCCN(CCCCCCCCCCCCCCCC)Cc1cccc(C(=N)NC2CCCC2)c1 [Example 20, m-[N,N-Di(n-hexadecyl)aminomethyl]-N-cyclopentyl-benzamidine] to CCCCCCCCCCCCCCCCN(CCCCCCCCCCCCCCCC)Cc1cccc(C(=N)NCC2CC2)c1 [Example 29], the ED50 falls from 27.3 mg/kg to 6.9 mg/kg (4-fold).

Going from CCCCCCCCCCCCCCCCN(CCCCCCCCCCCCCCCC)Cc1cccc(C(=N)Nc2nc(C)cs2)c1 [Example 21] to CCCCCCCCCCCCCCCCN(CCCCCCCCCCCCCCCC)Cc1cccc(C(=N)NCC)c1 [Example 26], the ED50 falls from 47.5 mg/kg to 7.6 mg/kg (6.2-fold).

Compared with CCCCCCCCCCCCCCCCN(CCCCCCCCCCCCCCCC)Cc1cccc(C(=N)NCCc2cnc[nH]2)c1 [Example 31], CCCCCCCCCCCCCCCCN(CCCCCCCCCCCCCCCC)Cc1cccc(C(=N)NCC(F)(F)F)c1 [Example 28, m-[N,N-Di(n-hexadecyl)aminomethyl]-N-(2,2,2-trifluoroethyl)-benzamidine] is 3.1-fold lower in ED50: 11.7 mg/kg for the first, 3.8 mg/kg for the second.

CCCCCCCCCCCCCCCCN(CCCCCCCCCCCCCCCC)Cc1cccc(C(=N)NC(=O)C(=O)O)c1 [Example 4, m-[N,N-Di(n-hexadecyl)aminomethyl]-N-oxoacetic acid-benzamidine] and CCCCCCCCCCCCCCCCN(CCCCCCCCCCCCCCCC)Cc1cccc(C(=N)Nc2ccccc2)c1 [Example 7] are within 1.5-fold of each other in ED50: 9.9 mg/kg for the first, 12.3 mg/kg for the second.

Going from CCCCCCCCCCCCCCCCN(CCCCCCCCCCCCCCCC)Cc1cccc(C(=N)Nc2cccc([N+](=O)[O-])c2)c1 [Example 13] to CCCCCCCCCCCCCCCCN(CCCCCCCCCCCCCCCC)Cc1cccc(C(=N)Nc2ccc(O)c(C)c2)c1 [Example 30], the ED50 falls from 21.6 mg/kg to 7.7 mg/kg (2.8-fold).

Compared with CCCCCCCCCCCCCCCCN(CCCCCCCCCCCCCCCC)Cc1cccc(C(=N)Nc2ccc(N(C)C)cc2)c1 [Example 14], CCCCCCCCCCCCCCCCN(CCCCCCCCCCCCCCCC)Cc1cccc(C(=N)Nc2ccc(F)cc2)c1 [Example 15] is 4.8-fold higher in ED50: 8 mg/kg for the first, 38 mg/kg for the second.

First: CCCCCCCCCCCCCCCCN(CCCCCCCCCCCCCCCC)Cc1cccc(C(=N)Nc2ccc([N+](C)(C)C)cc2)c1 [Example 32]
Second: CCCCCCCCCCCCCCCCN(CCCCCCCCCCCCCCCC)Cc1cccc(C(=N)Nc2ccc(Cl)cc2)c1 [Example 8]
The ED50 of the first is 2.2-fold lower: 7.4 mg/kg for the first, 16 mg/kg for the second.

CCCCCCCCCCCCCCCCN(CCCCCCCCCCCCCCCC)Cc1cccc(C(=N)Nc2ccc(S(N)(=O)=O)cc2)c1 [Example 16] and CCCCCCCCCCCCCCCCN(CCCCCCCCCCCCCCCC)Cc1cccc(C(=N)Nc2ccc(S(C)(=O)=O)cc2)c1 [Example 19] are within 1.5-fold of each other in ED50: 7 mg/kg for the first, 8.9 mg/kg for the second.

In the case of CCCCCCCCCCCCCCCCN(CCCCCCCCCCCCCCCC)Cc1cccc(C(=N)NCc2ccccc2)c1 [Example 22], the ED50 is reported as 7.8 mg/kg.

Same assay, conditions: Mus musculus, ip, 240 h; as mg. free base (Example 115); i.p. 18-24 h before EMC virus challenge; day 10; read-out: ED50

Molecule CCCCCCCCCCCCCCCCN(CCCCCCCCCCCCCCCC)Cc1cccc(C(=N)NCCCS(=O)(=O)O)c1 [Example 3, m-[N,N-Di(n-hexadecyl)aminomethyl]-N-(n-propane)sulfonic acid-benzamidine] has an ED50 of 8 mg/kg.

Same assay, conditions: Mus musculus, ip, 240 h; i.p. 18-24 h before s.c. EMC virus challenge; graphical, day 10; read-out: ED50 (dosage level required to obtain a fifty percent survival rate)

C=CCNC(=N)c1cccc(CN(CCCCCCCCCCCCCCCC)CCCCCCCCCCCCCCCC)c1 [Example 24, m-[N,N-di(n-hexadecyl)aminomethyl]-N-allyl-benzamidine] was tested, and the ED50 was 4.7 mg/kg.

Same assay, conditions: mouse, in vivo, ip

C=CCNC(=N)c1cccc(CN(CCCCCCCCCCCCCCCC)CCCCCCCCCCCCCCCC)c1 [Example 24, m-[N,N-di(n-hexadecyl)aminomethyl]-N-allyl-benzamidine] was tested, and the “Number of Survivors on Day 0” value was 10.

For C=CCNC(=N)c1cccc(CN(CCCCCCCCCCCCCCCC)CCCCCCCCCCCCCCCC)c1 [Example 24, m-[N,N-di(n-hexadecyl)aminomethyl]-N-allyl-benzamidine], the “Number of Survivors on Day 1” value was 10.

In the case of C=CCNC(=N)c1cccc(CN(CCCCCCCCCCCCCCCC)CCCCCCCCCCCCCCCC)c1 [Example 24, m-[N,N-di(n-hexadecyl)aminomethyl]-N-allyl-benzamidine], the “Number of Survivors on Day 2” value is reported as 10.

For C=CCNC(=N)c1cccc(CN(CCCCCCCCCCCCCCCC)CCCCCCCCCCCCCCCC)c1 [Example 24, m-[N,N-di(n-hexadecyl)aminomethyl]-N-allyl-benzamidine], the “Number of Survivors on Day 3” value was 10.

For C=CCNC(=N)c1cccc(CN(CCCCCCCCCCCCCCCC)CCCCCCCCCCCCCCCC)c1 [Example 24, m-[N,N-di(n-hexadecyl)aminomethyl]-N-allyl-benzamidine], the “Number of Survivors on Day 4” value was 9 and 10.

C=CCNC(=N)c1cccc(CN(CCCCCCCCCCCCCCCC)CCCCCCCCCCCCCCCC)c1 [Example 24, m-[N,N-di(n-hexadecyl)aminomethyl]-N-allyl-benzamidine] was tested, and the “Number of Survivors on Day 5” value was 8 and 6 and 5.

For C=CCNC(=N)c1cccc(CN(CCCCCCCCCCCCCCCC)CCCCCCCCCCCCCCCC)c1 [Example 24, m-[N,N-di(n-hexadecyl)aminomethyl]-N-allyl-benzamidine], the “Number of Survivors on Day 6” value was 8 and 6 and 4.

Source: patent publication US4025555A, “Aromatic amidines as antiviral agents in animals” (Pfizer Inc., priority 1976, dated 1977)
